For twelve compounds, MIC results are on record in DBAASP.

Test systems include Escherichia coli K-12; Bacillus subtilis 168; Escherichia coli B; Pseudomonas aeruginosa; Staphylococcus aureus; Streptococcus mutans; Enterococcus faecalis; Acinetobacter baumannii; Enterococcus faecium; Escherichia coli BW25113.
Assay in all cases: ≥ marks a high value that may be exact or a test limit, other limits are often not marked, values filed in µg/mL are converted to µM
The subject of experiment [1] is Candida albicans F7-39/IDE99.
The test system of experiment [2] is Micrococcus luteus CCM 144.
Experiment [3] has as its system Pseudomonas aeruginosa ATCC 27853.

The structures appear in SMILES notation. In brackets after ≈: the same amount, converted by molar mass. Several values for one entry are separate records, joined by “and”; a condition that tells them apart may be missing. Identical values can stand only once.

The MIC is the smallest concentration in the dilution series that meets the test's criterion for growth inhibition. The low end stands for inhibition by little substance, the high end for a need for much substance.

On to `CC[C@H](C)[C@H](NC(=O)[C@H](CCCN=C(N)N)NC(=O)[C@H](CCC(N)=O)NC(=O)[C@@H](NC(=O)[C@@H](NC(=O)[C@H](CCC(N)=O)NC(=O)[C@H](C)N)[C@@H](C)CC)C(C)C)C(=O)N[C@@H](CCCCN)C(=O)N[C@@H](CC(=O)O)C(=O)N[C@@H](Cc1ccccc1)C(=O)N[C@@H](CC(C)C)C(=O)N[C@@H](CCCN=C(N)N)C(N)=O` [AQIVQRIKDFLR], for which, in the experiment on Escherichia coli K-12, the MIC was no less than 240 µM.
Turning to `CC[C@H](C)[C@H](NC(=O)[C@H](CC(C)C)NC(=O)[C@H](CCCCN)NC(=O)[C@@H](NC(=O)[C@@H](NC(=O)[C@H](Cc1cnc[nH]1)NC(=O)[C@@H]1CCCN1C(=O)[C@H](CC(C)C)NC(=O)[C@@H](NC(=O)[C@H](CCCCN)NC(=O)[C@H](C)NC(=O)[C@H](CC(C)C)NC(=O)[C@H](CC(C)C)NC(=O)[C@H](CO)NC(=O)[C@H](C)NC(=O)[C@H](CCSC)NC(=O)CN)C(C)C)C(C)C)C(C)C)C(=O)N[C@@H](CCCCN)C(N)=O` [GMASLLAKVLPHVVKLIK], the MIC against Bacillus subtilis 168 stood at 2.5 µM (≈ 4.79 µg/mL); against Escherichia coli B, 3.7 µM (≈ 7.09 µg/mL); against Pseudomonas aeruginosa, 31.7 µM (≈ 60.8 µg/mL); in experiment [1] it was 25 µM (≈ 47.9 µg/mL); in [2], 1.7 µM (≈ 3.26 µg/mL); against Staphylococcus aureus it was 3.7 µM (≈ 7.09 µg/mL).
For the compound `CC[C@H](C)[C@H](N)C(=O)NCC(=O)N[C@@H](CC(C)C)C(=O)N[C@@H](CCCN=C(N)N)C(=O)NCC(=O)N[C@@H](CC(C)C)C(=O)NCC(=O)N[C@@H](CCCN=C(N)N)C(=O)N[C@@H](CCCCN)C(=O)N[C@H](C(=O)N[C@@H](C)C(=O)N[C@@H](CC(C)C)C(=O)N[C@H](C(=O)N[C@@H](Cc1cnc[nH]1)C(=O)N[C@@H](CCCCN)C(=O)N[C@@H](CCCCN)C(=O)N[C@@H](Cc1ccc(O)cc1)C(=O)NCC(=O)O)[C@@H](C)CC)[C@@H](C)CC` [IGLRGLGRKIALIHKKYG], the MIC in the experiment on Bacillus subtilis 168 and in the experiment on Escherichia coli K-12 was no less than 120 µM each time.
As for `CC(C)C[C@H](NC(=O)[C@H](CC(C)C)NC(=O)[C@H](CCCCN)NC(=O)[C@H](CCCCN)NC(=O)[C@H](CC(C)C)NC(=O)[C@@H](N)CCCCN)C(=O)N[C@@H](CCCCN)C(=O)N[C@@H](CCCN=C(N)N)C(=O)N[C@@H](Cc1c[nH]c2ccccc12)C(=O)N[C@@H](CCCN=C(N)N)C(=O)N[C@@H](CCCN=C(N)N)C(=O)N[C@@H](Cc1c[nH]c2ccccc12)C(=O)N[C@@H](Cc1c[nH]c2ccccc12)C(=O)N[C@@H](CCCN=C(N)N)C(=O)O` [KLKKLLKRWRRWWR], the MIC against Streptococcus mutans worked out at 3.9 µM (≈ 8 µg/mL).
Consider `CC[C@H](C)[C@H](NC(=O)[C@H](CCCCN)NC(=O)CNC(=O)[C@H](Cc1c[nH]c2ccccc12)NC(=O)[C@H](CC(N)=O)NC(=O)[C@@H](N)CCCCN)C(=O)N[C@@H](CC(C)C)C(=O)N[C@@H](CCCCN)C(=O)N[C@@H](Cc1cnc[nH]1)C(=O)N[C@H](C(=O)N[C@H](C(=O)N[C@@H](CCCCN)C(N)=O)[C@@H](C)CC)[C@@H](C)CC` [KNWGKILKHIIK], for which the MIC in the experiment on Bacillus subtilis 168 worked out at 5.8 µM (≈ 8.57 µg/mL); in the experiment on Escherichia coli B, 11.3 µM (≈ 16.7 µg/mL); against Pseudomonas aeruginosa, 31.7 µM (≈ 46.8 µg/mL); in [1] it was 7.7 µM (≈ 11.4 µg/mL); in [2], 4.5 µM (≈ 6.65 µg/mL); in the experiment with Staphylococcus aureus, 76.7 µM (≈ 113 µg/mL).
Regarding `CC[C@H](C)[C@@H]1NC(=O)[C@H](CCCCN)NC(=O)[C@H](CCCCN)NC(=O)[C@@H]2CSSC[C@H](NC(=O)[C@H](C)NC(=O)[C@H](C(C)C)NC(=O)[C@@H](NC(=O)[C@@H](NC(=O)[C@@H](NC(=O)[C@H](CCCCN)NC(=O)[C@H](CCCCN)NC(=O)[C@@H](NC(=O)[C@H](CC(=O)O)NC(=O)[C@@H](N)CC(C)C)C(C)C)[C@@H](C)CC)[C@@H](C)CC)CSSC[C@@H](C(=O)N3CCC[C@H]3C(=O)N[C@@H](CCCCN)C(=O)O)NC1=O)C(=O)N[C@@H](CCCCN)C(=O)N[C@@H]([C@@H](C)CC)C(=O)N[C@@H](CCCN=C(N)N)C(=O)N1CCC[C@H]1C(=O)N[C@@H](CC(N)=O)C(=O)N1CCC[C@H]1C(=O)N[C@@H](C)C(=O)N2` [LDVKKIICVACKIRPNPACKKICPK], the MIC is 1.5 µM (≈ 4.17 µg/mL) against Bacillus subtilis 168; no less than 32.5 µM against Escherichia coli B; greater than 100 µM with Pseudomonas aeruginosa; 18.7 µM (≈ 52 µg/mL) in [1]; 0.8 µM (≈ 2.22 µg/mL) in [2]; greater than 100 µM in the experiment on Staphylococcus aureus.
As for `CC[C@H](C)[C@H](NC(=O)[C@H](C)NC(=O)[C@H](CCCCN)NC(=O)[C@H](CC(C)C)NC(=O)[C@H](CCCCN)NC(=O)[C@@H](N)CC(C)C)C(=O)N[C@@H](C)C(=O)N[C@@H](C)C(=O)N[C@@H](CC(C)C)C(=O)N[C@@H](C)C(=O)N[C@@H](CCCCN)C(=O)N[C@@H](CCCCN)C(=O)N[C@@H](CCCCN)C(=O)N[C@@H](Cc1c[nH]c2ccccc12)C(N)=O` [LKLKAIAALAKKKW], the minimum inhibitory concentration (MIC) against Enterococcus faecalis was 7.59 µM (≈ 12 µg/mL); with Acinetobacter baumannii, 5.06 µM (≈ 8 µg/mL); in experiment [3] it was 40.5 µM and > 20.2 µM; against Pseudomonas aeruginosa, 10.1 µM (≈ 16 µg/mL); against Staphylococcus aureus, 15.2 µM (≈ 24 µg/mL).
As to `C[C@H](NC(=O)[C@H](CO)NC(=O)[C@H](C)NC(=O)[C@H](Cc1ccccc1)NC(=O)[C@H](Cc1c[nH]c2ccccc12)NC(=O)[C@H](Cc1c[nH]c2ccccc12)NC(=O)[C@H](Cc1c[nH]c2ccccc12)NC(=O)[C@H](CCCN=C(N)N)NC(=O)[C@H](CCCN=C(N)N)NC(=O)[C@@H](N)CCCN=C(N)N)C(=O)N[C@@H](CO)C(=O)N[C@@H](C)C(=O)N[C@@H](CCCN=C(N)N)C(=O)N[C@@H](CCCN=C(N)N)C(=O)N[C@@H](CCCN=C(N)N)C(=O)N[C@@H](Cc1c[nH]c2ccccc12)C(=O)N[C@@H](Cc1c[nH]c2ccccc12)C(=O)N[C@@H](Cc1c[nH]c2ccccc12)C(=O)N[C@@H](Cc1ccccc1)C(N)=O` [RRRWWWFASASARRRWWWF], the MIC in the experiment with Streptococcus mutans was determined as 11.6 µM (≈ 32 µg/mL).
For `CC(C)C[C@H](NC(=O)[C@H](CC(C)C)NC(=O)[C@H](CC(C)C)NC(=O)[C@H](CC(C)C)NC(=O)[C@H](CC(C)C)NC(=O)[C@H](CCCN=C(N)N)NC(=O)[C@H](Cc1c[nH]c2ccccc12)NC(=O)[C@@H](N)CCCN=C(N)N)C(=O)N[C@@H](CCCCN)C(=O)N[C@@H](CCCN=C(N)N)C(=O)N[C@@H](Cc1cnc[nH]1)C(=O)O` [RWRLLLLLKRH], the MIC in the experiment on Enterococcus faecalis and in the experiment on Enterococcus faecium was 23.5 µM (≈ 35.4 µg/mL) throughout.
With `CC[C@H](C)[C@H](NC(=O)[C@@H]1CCCN1C(=O)[C@H](Cc1c[nH]c2ccccc12)NC(=O)[C@H](CCCN=C(N)N)NC(=O)[C@H](Cc1c[nH]c2ccccc12)NC(=O)[C@@H](N)CCCN=C(N)N)C(=O)N[C@@H](CCCN=C(N)N)C(=O)N[C@@H](CCCN=C(N)N)C(=O)N[C@@H](CCCN=C(N)N)C(=O)N1CCC[C@H]1C(=O)N[C@H](C(=O)N[C@@H](CCCN=C(N)N)C(=O)N1CCC[C@H]1C(=O)N1CCC[C@H]1C(=O)N[C@@H](Cc1ccccc1)C(=O)N[C@@H](Cc1c[nH]c2ccccc12)C(=O)N[C@@H](CCCN=C(N)N)C(=O)O)[C@@H](C)CC` [RWRWPIRRRPIRPPFWR], the MIC against Escherichia coli BW25113 was 4 µM (≈ 9.73 µg/mL).
Compound `CC[C@H](C)[C@H](NC(=O)[C@H](CCCCN)NC(=O)[C@H](CC(C)C)NC(=O)[C@H](CC(C)C)NC(=O)[C@H](CCC(N)=O)NC(=O)[C@H](CCCCN)NC(=O)[C@@H](N)C(C)C)C(=O)N[C@@H](Cc1ccccc1)C(=O)N[C@@H](CC(N)=O)C(=O)N[C@@H](CCCN=C(N)N)C(=O)N[C@@H](Cc1ccccc1)C(N)=O` [VKQLLKIFNRF] yielded an MIC against Streptococcus mutans of 31.8 µM (≈ 44.7 µg/mL).
`CC[C@H](C)[C@H](NC(=O)[C@H](Cc1cnc[nH]1)NC(=O)[C@H](CC(C)C)NC(=O)[C@H](CC(C)C)NC(=O)[C@@H](NC(=O)[C@H](CCCCN)NC(=O)[C@@H](N)C(C)C)[C@@H](C)O)C(=O)N[C@@H](Cc1ccccc1)C(=O)N[C@@H](CCC(N)=O)C(=O)N[C@@H](CCCN=C(N)N)C(=O)N[C@@H](Cc1ccccc1)C(N)=O` [VKTLLHIFQRF] showed an MIC in the experiment on Streptococcus mutans of no less than 44.6 µM.
